Results on four molecules are retold here after US6653478B2, “Substituted benzimidazol-2-ones as vasopressin receptor antagonists and neuropeptide Y modulators” (Ortho-McNeil Pharmaceutical, Inc., priority 2000, dated 2003).

Series [1] addresses T1, human V2 receptor (Homo sapiens, UniProt P30518). The experiment in a line: V2 binding assay (3H-AVP displacement, HEK-293 membranes). Details: expressed in transfected cells; host or cells: HEK-293 (membranes). As to conditions: 10 μM compound; read-out: V2 % Inh @10. A digest of the protocol: (§1)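 Tracer 3H-AVP, 10,000 cpm/well; buffer 50 mM Tris/5 mM MgCl2/0.1% BSA pH 7.5 + Pefabloc, aprotinin, leupeptin, pepstatin A, bacitracin; NSB 1.25 μM AVP; 1 h RT; GF/C filtration (0.3% PEI); scintillation count with quench correction.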

Series [2] addresses T2, human V1a receptor (Homo sapiens, UniProt P37288). Description: V1a binding assay (3H-AVP displacement, HEK-293 membranes). Details: expressed in transfected cells; host or cells: HEK-293 (membranes). A digest of the protocol: as §1
Another series concerns the target T3, NPY2 receptors (Homo sapiens, UniProt P49146).
T3 construct: Cell Membranes from KAN-TS cells having NPY2 receptors; endogenous in cells; host or cells: KAN-TS cells (membranes)
T3 sequence (P49146 1-381): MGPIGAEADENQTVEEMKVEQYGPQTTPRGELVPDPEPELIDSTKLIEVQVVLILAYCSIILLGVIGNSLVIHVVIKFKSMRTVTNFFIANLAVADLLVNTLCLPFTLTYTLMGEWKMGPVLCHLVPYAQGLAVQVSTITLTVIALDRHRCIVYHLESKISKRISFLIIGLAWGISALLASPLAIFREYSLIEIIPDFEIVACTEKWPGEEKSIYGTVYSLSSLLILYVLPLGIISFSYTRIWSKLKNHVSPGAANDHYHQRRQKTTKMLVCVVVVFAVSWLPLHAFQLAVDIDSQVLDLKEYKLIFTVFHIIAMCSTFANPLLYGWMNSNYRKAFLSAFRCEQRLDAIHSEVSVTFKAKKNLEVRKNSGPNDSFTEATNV
Description: Neuropeptide Y receptor binding assay (125I-PYY, KAN-TS cell membranes). Particulars: 10 μM compound; read-out: NPY-2@10, % Inh. A digest of the protocol:
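Membranes from KAN-TS cells competed with 125I-PYY in binding buffer containing BSA, test compound at 10 μM final, 1 hr at room temperature. Nonspecific binding defined with 1 μM PYY final. Tubes centrifuged, washed with PBS and bound radioactivity gamma-counted.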

In series [3] the target is T4, human V1b receptor (Homo sapiens, UniProt P47901).
T4 sequence (P47901 1-424): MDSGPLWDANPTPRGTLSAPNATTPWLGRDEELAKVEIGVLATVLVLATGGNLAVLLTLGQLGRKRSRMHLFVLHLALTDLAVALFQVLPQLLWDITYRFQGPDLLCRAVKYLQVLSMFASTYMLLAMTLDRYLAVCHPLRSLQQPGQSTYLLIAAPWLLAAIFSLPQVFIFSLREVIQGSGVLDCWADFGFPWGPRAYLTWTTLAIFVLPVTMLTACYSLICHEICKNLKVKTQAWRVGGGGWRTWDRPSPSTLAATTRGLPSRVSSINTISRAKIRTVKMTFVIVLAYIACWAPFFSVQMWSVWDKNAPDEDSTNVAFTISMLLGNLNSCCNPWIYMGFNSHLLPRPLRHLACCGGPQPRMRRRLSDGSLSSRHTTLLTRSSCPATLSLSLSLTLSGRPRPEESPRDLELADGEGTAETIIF
Description: V1b binding assay (3H-AVP displacement, HEK-293 membranes). Details: expressed in transfected cells; host or cells: HEK-293 (membranes). Particulars: 10 μM compound; read-out: V1b % Inh @10. A digest of the protocol: as §1

Series [4] has as its target T2, human V1a receptor. Description: V1a functional assay, intracellular calcium mobilization in transfected HEK-293 cells (FLIPR). Details: expressed in transfected cells; host or cells: HEK-293. As to conditions: challenge 1 nM AVP; read-out: Cell-Based Functional activity V1a IC50. The protocol:
(§2) V1a, V1b or V2 Functional Assay
(§3) HEK-293 cells were grown in DMEM media supplemented with 10% FBS and glutamine (Gibco BRL, Grand Island, N.Y.). Once transfected the cells were passed biweekly by trypsinization and seeded into 96 well plates at 33,000 cells per well. HEK-293 were transfected with human V1a, V1b or V2 DNA using DMRIE-C reagent from Life Technologies, Inc., Grand Island, N.Y. Cells were tested for their responsiveness to vasopressin 48 hours after transfection. Stable lines were generated by selecting cells grown in culture media containing geneticin (500 μg/ml, Life Technologies).
(§4) Intracellular calcium mobilization was measured in HEK-293 cells transfected to express either human V1a, oxytocin or V1b receptors. Cells were plated into black 96-well Packard Clear-View plates 4 to 7 days prior to use. The cells were loaded with fluo-3 AM (Molecular Probes, Inc., Eugene, Oreg.) in buffer (25 mM Hepes, 125 mM NaCl, 1 gm/l glucose, 0.1% BSA, 5 mM KCl, 0.5 mM CaCl2, 0.5 mM MgCl2, pH 7.45) containing Pluronic (Molecular Probes) Cells were incubated with 5 μM fluo-3 AM for 1 hour shielded from light at room temperature. Intracellular fluorescence was measured using FLIPR (fluorometric imaging plate reader; Molecular Devices, Inc., Sunnyvale, Calif.). The FLIPR protocol called for images to be collected at one second intervals with 50 μl of the test compound added after the initial 10 images. An additional 70 images were then taken to detect any compound agonistic activity. FLIPR then added 50 μl of agonist peptide and collected a final 40 images for quantitating compound antagonistic activity. V1a- and V1b-expressing HEK cells were challenged with 1 nM and 0.5 nM AVP, respectively. Oxytocin-expressing HEK cells were challenged with 0.5 nM oxytocin (Peninsula Labs).
(§5) The data from the cAMP accumulation and the calcium mobilization assays are expressed as IC50 values as determined from dose response curves.

Series [5] deals with T1, human V2 receptor. The experiment in a line: V2 functional assay, cAMP accumulation in transfected HEK-293 cells. The series is classed as cell-based. Details: expressed in transfected cells; host or cells: HEK-293. As to conditions: HEK293; 30 μM compound; read-out: Cell-Based Functional activity V2 % Inh. @ 30. As to the method:
as §2, §3
The accumulation of cAMP was measured in transfected HEK-293 expressing the human V2 receptor. The cells were cultured 4-7 days in 96-well plates. On the day of assay, cells were washed twice in assay media (DMEM/F12 containing 0.1% BSA). The cells were treated with the test compound for 5 minutes and then given AVP (1 nM) in assay media containing 1 mM isobutylmethylxanthine. After 5 minutes, 0.5 N HCl was added to disrupt the cells and solubilize cAMP. The cAMP content of 20 μl of the cell lysate in each well was measured using cAMP Flashplates (NEN Life Sciences). Data are expressed as pmol cAMP/well. While the assay is optimized to detect and quantitate antagonistic activity, agonistic activity would also be apparent at the higher concentrations of test compounds.
as §5

In series [6] the target is T4, human V1b receptor. Description: V1b functional assay, intracellular calcium mobilization in transfected HEK-293 cells (FLIPR). The series is classed as cell-based. Details: expressed in transfected cells; host or cells: HEK-293. As to conditions: HEK293; 30 μM compound; read-out: Cell-Based Functional activity V1b % Inh. @ 30. The protocol:
as §2, §3, §4, §5

Series [7] addresses T2, human V1a receptor. Details: expressed in transfected cells; host or cells: HEK-293. As to conditions: stated in literature; cited from earlier work.
A further series has as its target V1a (Rattus norvegicus, UniProt P30560). As to conditions: stated in literature; cited from earlier work.

T2 sequence (P37288 whole entry): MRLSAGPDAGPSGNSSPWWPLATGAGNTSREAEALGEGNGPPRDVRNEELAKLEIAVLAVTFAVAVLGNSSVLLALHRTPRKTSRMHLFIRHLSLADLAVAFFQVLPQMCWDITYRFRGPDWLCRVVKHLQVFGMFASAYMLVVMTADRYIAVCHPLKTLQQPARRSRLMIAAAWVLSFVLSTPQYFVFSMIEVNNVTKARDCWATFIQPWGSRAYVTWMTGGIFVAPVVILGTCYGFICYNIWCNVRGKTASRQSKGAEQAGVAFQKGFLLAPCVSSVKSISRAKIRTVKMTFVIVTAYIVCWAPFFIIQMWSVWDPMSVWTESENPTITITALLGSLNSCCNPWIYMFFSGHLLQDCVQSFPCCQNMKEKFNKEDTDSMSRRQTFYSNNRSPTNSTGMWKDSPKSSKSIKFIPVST
T1 sequence (P30518 whole entry): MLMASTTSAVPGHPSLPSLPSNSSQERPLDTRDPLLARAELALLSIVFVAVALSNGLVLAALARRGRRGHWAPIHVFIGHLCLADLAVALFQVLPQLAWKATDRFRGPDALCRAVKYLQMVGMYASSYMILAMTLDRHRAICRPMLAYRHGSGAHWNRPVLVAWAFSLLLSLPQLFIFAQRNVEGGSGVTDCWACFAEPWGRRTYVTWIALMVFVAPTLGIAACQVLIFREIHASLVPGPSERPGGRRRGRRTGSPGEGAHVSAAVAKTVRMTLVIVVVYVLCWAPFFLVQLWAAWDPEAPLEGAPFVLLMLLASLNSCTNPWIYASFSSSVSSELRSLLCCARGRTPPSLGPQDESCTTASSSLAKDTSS
V1a, sequence (P30560 whole entry): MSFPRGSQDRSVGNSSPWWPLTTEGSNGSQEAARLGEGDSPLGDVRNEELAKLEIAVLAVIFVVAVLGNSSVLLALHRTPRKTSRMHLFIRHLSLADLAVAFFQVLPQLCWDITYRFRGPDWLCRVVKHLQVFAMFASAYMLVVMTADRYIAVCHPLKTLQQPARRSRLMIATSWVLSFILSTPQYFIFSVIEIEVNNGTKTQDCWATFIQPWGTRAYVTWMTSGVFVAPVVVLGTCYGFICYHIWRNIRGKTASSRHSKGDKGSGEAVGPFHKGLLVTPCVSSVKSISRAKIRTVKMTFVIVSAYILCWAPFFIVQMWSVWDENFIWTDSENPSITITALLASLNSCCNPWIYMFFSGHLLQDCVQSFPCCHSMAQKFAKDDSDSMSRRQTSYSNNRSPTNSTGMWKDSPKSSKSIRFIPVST

`O=c1[nH]c2ccccc2n1C1CCN(C(=S)NCc2ccccc2Cl)CC1` [Compound 12] had a melting point of 181 to 184 °C. Also, the inhibition at 10 µM at human V2 receptor [1] was 5%. At human V1a receptor [2], this molecule gave an IC50 of 2500 nM. In addition, the inhibition at 10 µM at NPY2 receptors was determined as 21%. Further, the inhibition at 10 µM on human V1b receptor [3] amounted to 0%.
The molecule `O=c1[nH]c2ccccc2n1C1CCN(C(=S)NCC(c2ccccc2)c2ccccc2)CC1` [Compound 13] had a melting point of 230 to 233 °C. For the same molecule, the inhibition at 10 µM at human V2 receptor [1] was found to be 4%. For the same molecule, at human V1a receptor [2], the IC50 turned out to be 1200 nM. The inhibition at 10 µM at NPY2 receptors came out at 22%. The inhibition at 10 µM on human V1b receptor [3] was determined as 1%.
For the molecule `COC(=O)[C@@H](Cc1ccccc1)NC(=S)N1CCC(n2c(=O)n(CCCNC(=N)N)c3ccccc32)CC1` [Compound 58], the IC50 at human V1a receptor [4] was found to be 1430 nM. The inhibition at 1 µM at human V1a receptor [2] (1.0 μM compound, read-out: V1a@1.0, % Inh) was 52%. The inhibition at 30 µM on human V2 receptor [5] and at human V1b receptor [6] was 0% throughout. For the same molecule, on NPY2 receptors, the inhibition at 10 µM came out at 2%.
On to `CC(=O)NCCCOc1ccc(C(=O)N2CCC(N3C(=O)CCc4ccccc43)CC2)cc1` [OPC 21268], for which the “activity when tested for binding to human V1a receptor” value on human V1a receptor [7] is “no activity”. Besides, the activity in rat entry at V1a is recorded as “only active in rat”.
